The source of these data is ChEMBL document CHEMBL5357034, “Antimicrobial and Anti-inflammatory Cyclic Tetrapeptides from the Co-cultures of Two Marine-Derived Fungi” (2024).

What all share (type): functional
Assay [1] relates to Bacillus subtilis. Nature of the assay: Antimicrobial activity against Bacillus subtilis ATCC 6633 assessed as inhibition of microbial growth incubated for 24 hrs by broth microdilution method. On the technique in general: Broth dilution looks for growth in wells or tubes with falling amounts of substance.
Assay [2] has as its system Edwardsiella tarda. Nature of the assay: Antimicrobial activity against Edwardsiella tarda ATCC15947 assessed as inhibition of microbial growth incubated for 24 hrs by broth microdilution method.
For assay [3], the system named is RAW264.7. Nature of the assay: Anti-inflammatory activity in LPS-induced mouse RAW264.7 cells assessed as inhibition of IL-6 production at 10 uM preincubated with compound for 24 hrs followed by compound replacement with DMEM media and measured 6 hrs after LPS stimulation by qRT-PCR analysis relative to control. Background: Real-time PCR tracks product formation cycle by cycle.

In assay [4] the test system is Candida albicans. Nature of the assay: Antimicrobial activity against Candida albicans ATCC 10213 assessed as inhibition of microbial growth incubated for 24 hrs by broth microdilution method.
Assay [5] relates to Staphylococcus aureus. Nature of the assay: Antimicrobial activity against methicillin-resistant Staphylococcus aureus ATCC R6101 assessed as inhibition of microbial growth incubated for 24 hrs by broth microdilution method.
Assay [6] deals with Pseudomonas aeruginosa. Nature of the assay: Antimicrobial activity against Pseudomonas aeruginosa ATCC 27853 assessed as inhibition of microbial growth incubated for 24 hrs by broth microdilution method.
The test system of assay [7] is RAW264.7. Nature of the assay: Anti-inflammatory activity in LPS-induced mouse RAW264.7 cells assessed as inhibition of MCP-1 production at 10 uM preincubated with compound for 24 hrs followed by compound replacement with DMEM media and measured 6 hrs after LPS stimulation by qRT-PCR analysis relative to control.
In assay [8] the test system is Escherichia coli. Nature of the assay: Antimicrobial activity against Escherichia coli ATCC 25922 assessed as inhibition of microbial growth incubated for 24 hrs by broth microdilution method.
In assay [9] the test system is Acinetobacter baumannii. Nature of the assay: Antimicrobial activity against Acinetobacter baumannii 2799 assessed as inhibition of microbial growth incubated for 24 hrs by broth microdilution method.
Assay [10] deals with Staphylococcus aureus. Nature of the assay: Antimicrobial activity against methicillin-resistant Staphylococcus aureus ATCC 33591 assessed as inhibition of microbial growth incubated for 24 hrs by broth microdilution method.
Assay [11] has as its system RAW264.7. Nature of the assay: Anti-inflammatory activity in LPS-induced mouse RAW264.7 cells assessed as inhibition of TNF-alpha production at 10 uM preincubated with compound for 24 hrs followed by compound replacement with DMEM media and measured 6 hrs after LPS stimulation by qRT-PCR analysis relative to control.
For assay [12], the system named is Staphylococcus aureus. Nature of the assay: Antimicrobial activity against Staphylococcus aureus ATCC 29213 assessed as inhibition of microbial growth incubated for 24 hrs by broth microdilution method.
The test system of assay [13] is Edwardsiella tarda. Nature of the assay: Antimicrobial activity against Edwardsiella tarda QDIO-2 assessed as inhibition of microbial growth incubated for 24 hrs by broth microdilution method.
The subject of assay [14] is Edwardsiella ictaluri. Nature of the assay: Antimicrobial activity against Edwardsiella ictaluri ATCC33202 assessed as inhibition of microbial growth incubated for 24 hrs by broth microdilution method.

Square brackets hold non-standard residues; d marks the D form. Peptide text beside a SMILES is read from it. NMeA = CN[C@@H](C)C(=O)O Bounds are passed on as bounds.

As to `CC[C@H](C)[C@@H]1NC(=O)[C@H]([C@@H](C)O)NC(=O)[C@H](Cc2ccccc2)NC(=O)[C@H](C)N(C)C1=O` (cyclo(FTI[NMeA])), the minimal inhibitory concentration (MIC) in assay [1], in [2], in assay [4], in assay [5], in assay [6] and in assay [8] was over 128 µg/mL each time. Besides, the minimum inhibitory concentration (MIC) (usually the lowest concentration found to suppress growth) in assay [9] is over 128 µg/mL; in [10] it was over 128 µg/mL; in assay [12] it was over 128 µg/mL; in [13] it was 128 µg/mL; in assay [14], 128 µg/mL. Besides, the figures for the inhibition at 10 µM in [3], in assay [7] and in assay [11] were 61%, 56% and 13%, respectively.

For the molecule `CC[C@H](C)[C@@H]1NC(=O)[C@H]([C@@H](C)O)NC(=O)[C@H](Cc2ccc(OC)cc2)NC(=O)[C@H](C)N(C)C1=O` (cyclo(I[NMeA]Y(Me)T)), the MIC in assay [1] is over 128 µg/mL; in assay [2], 128 µg/mL; in assay [4], over 128 µg/mL; in assay [5], over 128 µg/mL; in assay [6], over 128 µg/mL; in assay [8] it was over 128 µg/mL. Also, the MIC in assay [9] was over 128 µg/mL; in [10] it was over 128 µg/mL; in [12] it was over 128 µg/mL; in assay [13] it was over 128 µg/mL; in assay [14], 64 µg/mL. Also, the figures for the inhibition at 10 µM in [3], in assay [7] and in [11] were 55%, 44% and 24%, respectively.

Consider `CC[C@H](C)[C@@H]1NC(=O)[C@H]([C@@H](C)O)NC(=O)[C@H](Cc2ccc(OC)cc2)NC(=O)[C@@H]2CCCN2C1=O` (cyclo(IPY(Me)T)), for which the minimum inhibitory concentration (MIC) in [1], in assay [2], in assay [4], in assay [5], in assay [6] and in [8] was over 128 µg/mL each time. Besides, the MIC in assay [9], in [10], in assay [12], in assay [13] and in assay [14] was over 128 µg/mL each time. Also, the inhibition (as a rule, the change of the read-out against control, counted positive when it falls) at 10 µM in assay [3] was 63%; in assay [7], 42%; in assay [11] it was 16%.

For `CN[C@H](CC(C)C)C(=O)N[C@H]1C(=O)N[C@@H](CC(N)=O)C(=O)N[C@H]2C(=O)N[C@H]3C(=O)N[C@H](C(=O)N[C@H](C(=O)O)c4cc(O)cc(O)c4-c4cc3ccc4O)[C@H](O)c3ccc(c(Cl)c3)Oc3cc2cc(c3O[C@@H]2O[C@H](CO)[C@@H](O)[C@H](O)[C@H]2O[C@H]2C[C@](C)(N)[C@H](O)[C@H](C)O2)Oc2ccc(cc2Cl)[C@H]1O` [VANCOMYCIN], the MIC in assay [1] is under 0.25 µg/mL; in assay [2], over 128 µg/mL; in assay [4], under 0.25 µg/mL; in assay [5], over 128 µg/mL; in [6], over 128 µg/mL; in assay [8], 128 µg/mL. Further, the MIC in assay [9] was 64 µg/mL; in [13] it was over 128 µg/mL; in assay [14], over 128 µg/mL.

Take `CC(C)Cc1cnc(CC(C)C)c(=O)[nH]1`: the MIC in assay [1] is over 128 µg/mL; in assay [2] it was 128 µg/mL; in assay [4] it was over 128 µg/mL; in [5], over 128 µg/mL; in [6] it was over 128 µg/mL; in [8], over 128 µg/mL. Moreover, the minimum inhibitory concentration (MIC) is over 128 µg/mL in [9]; over 128 µg/mL in assay [10]; over 128 µg/mL in assay [12]; 128 µg/mL in assay [13]; 64 µg/mL in assay [14].

Turning to `CO[C@H]1/C=C/O[C@@]2(C)Oc3c(C)c(O)c4c(O)c(c(/C=N/N5CCN(C)CC5)c(O)c4c3C2=O)NC(=O)/C(C)=C\C=C\[C@H](C)[C@H](O)[C@@H](C)[C@@H](O)[C@@H](C)[C@H](OC(C)=O)[C@@H]1C` [RIFAMPIN], the MIC was under 0.25 µg/mL in assay [1]; 2 µg/mL in assay [2]; under 0.25 µg/mL in [4]; 8 µg/mL in assay [5]; 8 µg/mL in [6]; 4 µg/mL in assay [8]. Moreover, the minimum inhibitory concentration (MIC) in [9] was 1 µg/mL; in assay [10], under 0.25 µg/mL; in [12], under 0.25 µg/mL; in [13], 4 µg/mL; in assay [14], 8 µg/mL.

With `CC[C@H](C)[C@@H]1NC(=O)[C@H](C)NC(=O)[C@H](Cc2ccc(OC)cc2)NC(=O)[C@H](C)N(C)C1=O` (cyclo(AI[NMeA]Y(Me))), the inhibition at 10 µM stood at 67% in assay [3], 12% in assay [7] and 6.6% in [11].

Consider `COc1ccc(C[C@@H]2NC(=O)[C@H](C)N(C)C(=O)[C@H](CC(C)C)NC(=O)[C@H]([C@@H](C)O)NC2=O)cc1` (cyclo(L[NMeA]Y(Me)T)), for which the minimal inhibitory concentration (MIC) was over 128 µg/mL in assay [1]; 128 µg/mL in assay [2]; over 128 µg/mL in assay [4]; over 128 µg/mL in [5]; over 128 µg/mL in assay [6]; over 128 µg/mL in [8]. In addition, the MIC in assay [9], in assay [10], in assay [12], in assay [13] and in [14] was over 128 µg/mL in each case. Further, the inhibition at 10 µM in [3] came to 55%; in [7], 41%; in assay [11], 15%.

Turning to `CC(C)Cc1ncc([C@@H](O)C(C)C)n(O)c1=O`, the MIC in assay [1] is 128 µg/mL; in assay [2], 128 µg/mL; in assay [4] it was 32 µg/mL; in assay [5] it was over 128 µg/mL; in assay [6], over 128 µg/mL; in [8], over 128 µg/mL. Moreover, the minimum inhibitory concentration (MIC) in [9] came to 128 µg/mL; in assay [10] it was 16 µg/mL; in assay [12] it was 32 µg/mL; in [13], 128 µg/mL; in assay [14] it was 64 µg/mL.
